# Measurements taken from patent publication US20110257208A1, “COMPOUNDS USEFUL AS FAAH MODULATORS AND USES THEREOF” (priority 2008, published 2011).
# Biological target: T1, hFAAH (Homo sapiens, UniProt O00519)
# T1 construct: expressed in transfected cells; host or cells: HEK293-TRex (Invitrogen) stably transfected with hFAAH in the pcDNA5-Tet-off vector, or T84 human colon epithelial cells (endogenous hFAAH); used as a microsomal preparation
# T1 sequence (O00519 1-579): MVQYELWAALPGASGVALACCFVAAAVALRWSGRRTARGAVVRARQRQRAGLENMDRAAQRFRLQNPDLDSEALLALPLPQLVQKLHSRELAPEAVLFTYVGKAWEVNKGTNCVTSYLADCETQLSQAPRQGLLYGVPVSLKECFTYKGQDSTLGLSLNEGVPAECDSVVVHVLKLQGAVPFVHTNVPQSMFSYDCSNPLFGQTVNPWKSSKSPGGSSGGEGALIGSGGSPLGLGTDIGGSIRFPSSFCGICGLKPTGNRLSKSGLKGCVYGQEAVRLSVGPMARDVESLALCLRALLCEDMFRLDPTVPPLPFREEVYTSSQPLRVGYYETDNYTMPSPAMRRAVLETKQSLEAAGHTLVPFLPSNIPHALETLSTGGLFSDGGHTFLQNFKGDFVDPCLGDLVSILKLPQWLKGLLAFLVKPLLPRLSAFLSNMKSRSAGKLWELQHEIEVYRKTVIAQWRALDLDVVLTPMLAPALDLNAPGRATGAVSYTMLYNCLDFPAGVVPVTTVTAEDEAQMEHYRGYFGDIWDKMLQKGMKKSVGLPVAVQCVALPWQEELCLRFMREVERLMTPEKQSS
# Experiment: Fluorimetric assay with hFAAH microsomes (enzymatic, fluorescence based)
# Type: biochemical
# Details: compound at 1 uM, AA-AMC substrate
# Method: Human cell line T84 (human colon epithelial cells), which expresses endogenous hFAAH, or HEK293-TRex cells (Invitrogen) stably transfected with hFAAH in the pcDNA5-Tet-off vector are cultured in medium containing DMEM, 10% FBS penicillin/streptomycin, glutamax, 200 μg/ml hygromycin and 0.5 μg/ml blasticidin. Cell collection is done 24 h after induction with doxycycline by first washing the cells with cold PBS and then incubating them with Versene before centrifugation. Cell pellets are then stored at −80° C. until needed. For homogenization, the cell pellets are thawed on ice […] and resuspended in homogenization buffer (50 mM HEPES (pH 7.4), 1 mM EDTA, 1 μM Pepstatin A, 100 μM Leupeptin, 0.1 mg/mL aprotinin). Cell suspensions are then homogenized on ice using the Polytron 1200 C at setting 6 for three 30-second intervals with 30-second rests. The suspension is centrifuged at 1000 g for 10 minutes at 4° C. and the supernatant is collected and further centrifuged at 24000 rpm for 30 minutes at 4° C. using an ultracentrifuge. Pellets are resuspended by adding in cold microsomal buffer (50 mM HEPES (pH 7.4) and 1 mM EDTA) and sheared through a 23-gauge needle five times, keeping the suspension on ice. Protein concentrations are determined using the BCA assay and aliquoted preparations are stored at −80° C. until needed.
# Compound potency against hFAAH is determined using an enzymatic assay with a fluorescence readout. Briefly, experiments were carried out in a 96-well plate format (Corning Costar, # 3370) with a total well volume of 160 μL with components added in the following order: assay buffer (50 mM HEPES (pH 7.4), 1 mM EDTA, 1.4 mg/mL BSA), compound solutions (7 different concentrations per compound in duplicate), microsomal enzyme preparation (10 μg per well) and substrate [AA-AMC (arachadonyl 7-amino 4-methyl coumarin amide), 2 μM]. After a brief shaking, a kinetic read of the plate is obtained using a Tecan Safire II in kinetic mode for 275 cycles with excitation and emission wavelengths of 355 and 460 nm, respectively. Raw data is then processed and analyzed using Assay Explorer and GraphPad Prism.
# The following compounds have been or can be prepared according to the methods of the invention. An enzymatic (fluorescence based) assay is performed as described above. In Table 1, activity of each compound is expressed as follows: • ++++ % Inhibition >75% • +++ % Inhibition >50% • ++ % Inhibition >25% • + % Inhibition <25%
row,SMILES,inhibition at 1 µM [%]
1,"c1ccc2ncc(Nc3ncnc4c3CN(CC3CCSCC3)C4)cc2c1 [Compound 18, Quinolin-3-yl-[6-(tetrahydro-thiopyran-4-ylmethyl)-6,7-dihydro-5H-pyrrolo[3,4-d]pyrimidin-4-yl]-amine]",> 75
2,"CC(CN1Cc2ncnc(Nc3cnc4ccccc4c3)c2C1)c1ccccc1 (stereo not shown) [Compound 19, [6-(2-Phenyl-propyl)-6,7-dihydro-5H-pyrrolo[3,4-d]pyrimidin-4-yl]-quinolin-3-yl-amine]",> 75
3,"OCCCCN1Cc2ncnc(Nc3cnc4ccccc4c3)c2C1 [Compound 20, 4-[4-(Quinolin-3-ylamino)-5,7-dihydro-pyrrolo[3,4-d]pyrimidin-6-yl]-butan-1-ol]",< 25
4,"c1ccc2ncc(Nc3ncnc4c3CN(CC3CCC3)C4)cc2c1 [Compound 21, (6-Cyclobutylmethyl-6,7-dihydro-5H-pyrrolo[3,4-d]pyrimidin-4-yl)-quinolin-3-yl-amine]",> 50
5,"c1ccc(CCN2Cc3ncnc(Nc4cnc5ccccc5c4)c3C2)cc1 [Compound 22, (6-Phenethyl-6,7-dihydro-5H-pyrrolo[3,4-d]pyrimidin-4-yl)-quinolin-3-yl-amine]",> 75
6,"c1ccc2ncc(Nc3ncnc4c3CN(C3CCCCC3)C4)cc2c1 [Compound 23, (6-Cyclohexyl-6,7-dihydro-5H-pyrrolo[3,4-d]pyrimidin-4-yl)-quinolin-3-yl-amine]",> 25
7,"Cn1nccc1CN1Cc2ncnc(Nc3cnc4ccccc4c3)c2C1 [Compound 24, [6-(2-Methyl-2H-pyrazol-3-ylmethyl)-6,7-dihydro-5H-pyrrolo[3,4-d]pyrimidin-4-yl]-quinolin-3-yl-amine]",> 25
8,"Cc1nc(CN2Cc3ncnc(Nc4cnc5ccccc5c4)c3C2)cs1 [Compound 25, [6-(2-Methyl-thiazol-4-ylmethyl)-6,7-dihydro-5H-pyrrolo[3,4-d]pyrimidin-4-yl]-quinolin-3-yl-amine]",< 25
9,"Cc1c(CN2Cc3ncnc(Nc4cnc5ccccc5c4)c3C2)cnn1C [Compound 26, [6-(1,5-Dimethyl-1H-pyrazol-4-ylmethyl)-6,7-dihydro-5H-pyrrolo[3,4-d]pyrimidin-4-yl]-quinolin-3-yl-amine]",> 25

# Next, values leading:
row,inhibition at 1 µM [%],SMILES
1,< 25,"CN1CCC(CN2Cc3ncnc(Nc4cnc5ccccc5c4)c3C2)CC1 [Compound 27, [6-(1-Methyl-piperidin-4-ylmethyl)-6,7-dihydro-5H-pyrrolo[3,4-d]pyrimidin-4-yl]-quinolin-3-yl-amine]"
2,> 75,"Cc1nc(C)c(CN2Cc3ncnc(Nc4cnc5ccccc5c4)c3C2)s1 [Compound 28, [6-(2,4-Dimethyl-thiazol-5-ylmethyl)-6,7-dihydro-5H-pyrrolo[3,4-d]pyrimidin-4-yl]-quinolin-3-yl-amine]"
3,> 25,"CC1(CN2Cc3ncnc(Nc4cnc5ccccc5c4)c3C2)COC1 [Compound 29, [6-(3-Methyl-oxetan-3-ylmethyl)-6,7-dihydro-5H-pyrrolo[3,4-d]pyrimidin-4-yl]-quinolin-3-yl-amine]"
4,< 25,"FC(F)(F)CN1Cc2ncnc(Nc3cnc4ccccc4c3)c2C1 [Compound 30, Quinolin-3-yl-[6-(2,2,2-trifluoro-ethyl)-6,7-dihydro-5H-pyrrolo[3,4-d]pyrimidin-4-yl]-amine]"
5,> 50,"FC(F)(F)CCN1Cc2ncnc(Nc3cnc4ccccc4c3)c2C1 [Compound 31, Quinolin-3-yl-[6-(3,3,3-trifluoro-propyl)-6,7-dihydro-5H-pyrrolo[3,4-d]pyrimidin-4-yl]-amine]"
6,> 25,"CC(C)C(C)N1Cc2ncnc(Nc3cnc4ccccc4c3)c2C1 (stereo not shown) [Compound 32, [6-(1,2-Dimethyl-propyl)-6,7-dihydro-5H-pyrrolo[3,4-d]pyrimidin-4-yl]-quinolin-3-yl-amine]"
7,> 75,"c1ccc2ncc(Nc3ncnc4c3CN(CC3CCOCC3)C4)cc2c1 [Compound 33, Quinolin-3-yl-[6-(tetrahydro-pyran-4-ylmethyl)-6,7-dihydro-5H-pyrrolo[3,4-d]pyrimidin-4-yl]-amine]"
